Assay results taken from US20090137493A1, “Inhibition of tumor metastases using protein kinase C (PKC) inhibitors” (priority 2007, published 2009).
Bridges are numbered along the chain shown (N, C = ends). Where no end group is shown, it is not given here.

Columns and labels:
beta-1 integrin = experiment: Beta-1 integrin expression in cells from primary tumors; assay type: in vivo; conditions: data not shown
From the text: FIG. 10A is a bar graph showing the relative expression levels of beta 1 (βI) integrin on the surface of tumor cells from animals with metastasis (Mets) or no metastasis (No mets).
To better understand the role of PKC inhibitors in reducing metastasis, tumor cells, cells from primary tumors in animals with metastasis (Mets) and without metastasis (No mets) were isolated and assayed for levels of beta-1 integrin (FIG. 10A). The levels of beta-1 integrin were reduced about 50% in animals with no metastasis.

JC tumor cells = experiment: Growth rate of JC tumor cells in vitro; assay type: cell-based, mouse; conditions: doses of 0, 1, 5 and 10 μM, compared to TAT carrier peptide control
Procedure: FIGS. 6B-6C are bar graphs showing the affect of the αV5-3-TAT peptide on growth rate of JC tumor cells (FIG. 6B) and 4T1 tumor cells (FIG. 6C) in vitro. The cells treated with the TAT carrier peptide (TAT) or with αV5-3-TAT peptide (PKC alpha inhibitor), at doses of 0, 1, 5, and 10 μM.
(§1) To determine if the effects observed with the α and βIIPKC peptide inhibitors was due to a decrease in metastasis as opposed to a decrease in primary tumor growth, animals injected with 4T1 tumor cells were treated with saline, the αV5-3-TAT conjugate peptide (αPKC), or the βIIV5-3-TAT conjugate peptide (βPKC) and the number of tumors cells at the primary site of injection were determined.

tumor cells [1] = experiment: Survival of animals after intravenous administration of tumor cells; assay type: in vivo, mice; conditions: versus saline (PBS)
Procedure: FIG. 9 is a graph showing the percent surviving animals in the time (in days) following intravenous administration of tumor cells. The mice were treated with saline (squares; PBS) or the αV5-3-TAT peptide (circles; peptide).

JC cells = experiment: Wound healing (migration) assay, JC; assay type: cell-based, mouse; conditions: peptide 1 uM, re-applied every 2 h for 8 h
Procedure: FIGS. 15A-15D are micrographs showing the efficacy of TAT carrier peptide (TAT; FIG. 15A), αV5-3-TAT peptide (Alpha; FIG. 15B), βIIV5-3 peptide (Beta2; FIG. 15C), and εV1-2 (Epsilon; FIG. 15D) on JC cell migration.
To investigate the role of PKC inhibitors in reducing the migration of tumor cells, in vitro migration assays were performed using MDA-MB-231 breast cancer cells (FIGS. 12A-12D), MCF-7 breast cancer cell (FIGS. 13A-13D), JC cells (FIGS. 15A-15D), and 4T1 cells (FIGS. 16A-16D), in the presence of TAT carrier peptide (TAT), αV5-3-TAT peptide (Alpha), βIIV5-3 peptide (Beta2), or εV1-2 peptide (Epsilon).
Wound healing assay: Human or mouse breast cancer cell lines were grown in 6-well plates until about 90% confluent. Cells were then grown in serum free media overnight, before media was changed to media +1% FBS and peptide PKC inhibitors added (1 uM), at the same time a pipette tip was drawn across the cell layer to create a scrape ‘wound’. PKC inhibitors were re-applied every 2 h for a total of 8 h, before cells were left for a further 12 h and then the scrape was examined under phase contrast microscopy.

tumor cells [2] = experiment: Adhesion of intravenously injected tumor cells to the lungs (imaging); assay type: in vivo, mice; conditions: for adhesion of tumor cells in the lung, imaging: versus TAT
Procedure: FIG. 7A is a bar graph showing the affect of αV5-3-TAT peptide on the adhesion of tumor cells into the lungs. Animals were treated with TAT carrier peptide (TAT), or αV5-3-TAT peptide (PKC alpha inhibitor), initiated two days before, and continued for 12 days following, injection of tumor cells intravenously;
FIGS. 7B-7C are images of mice two days after treatment as described in FIG. 7A. The mice in FIG. 7B were treated with TAT and the mice in FIG. 7C treated with αV5-3-TAT peptide.
FIGS. 7D-7E are images of mice following five days of treatment as described in FIG. 7A. The mice in FIG. 7D were treated TAT (control) and the mice in FIG. 7E were treated with αV5-3-TAT peptide (PKC a inhibitor).
For example, FIG. 7A is a bar graph showing the affect of αV5-3-TAT peptide on the adhesion of tumor cells into the lungs. In this experiment, animals were treated with TAT carrier peptide (TAT), or αV5-3-TAT peptide (PKC alpha inhibitor), for two days before injection of tumor cells intravenously. Adhesion of tumor cells to the lung was reduced in animals treated with the PKC alpha inhibitor compared to control animals.
FIGS. 7B and 7C are images of representative mice two days after treatment. The mice in FIG. 7B were treated with TAT and the mice in FIG. 7C treated with αV5-3-TAT peptide. […] FIGS. 7D-7E are images of mice following five days of treatment. The mice in FIG. 7D were treated TAT (control) and the mice in FIG. 7E were treated with αV5-3-TAT peptide (PKC a inhibitor).

4T1 tumor cells = experiment: Growth of primary tumors in vivo (number of tumor cells at primary site of injection); design: species or system mice; conditions: animals injected with 4T1 tumor cells, FIG. 6A, versus saline
Procedure: FIG. 6A is a bar graph showing the affect of saline, the αV5-3-TAT conjugate peptide (αPKC), or the βIIV5-3-TAT conjugate peptide (βPKC) on the growth rate of primary tumors in vivo.
as §1

CXCR4 chemokine receptor = experiment: CXCR4 expression on the surface of tumor cells from treated animals; assay type: in vivo; conditions: cells from primary tumors of treated animals, versus TAT, FIG. 10B
From the text: FIG. 10B is a bar graph showing the relative expression levels of CXCR4 chemokine receptor on the surface of tumor cells from animals treated with the TAT carrier peptide (TAT) or the αV5-3-TAT peptide (Alpha inhibitor).
Cells from primary tumors in animals treated with the αPKC inhibitor were also isolated and assayed for levels of CXCR4 (FIG. 10B) and levels of matrix metalloproteinase 2 (MMP2) activity (FIG. 10C).

αPKC = target: T1, αPKC (Mus musculus, UniProt P20444); experiment: Translocation of αPKC in tumor cells (immunoblot of cytosol and particulate fractions); assay type: in vivo; conditions: FIG. 5A
T1 construct: endogenous in cells; host or cells: 4T1 murine mammary tumour cells grown as tumours in Balb/c mice
Procedure: FIGS. 5A-5B are bar graphs showing the percentage of translocation of αPKC (FIG. 5A) and βIIPKC (FIG. 5B) […] in tumor cells treated with αV5-3-TAT peptide.
To further characterize inhibition of metastasis using the α and βIIPKC inhibitors, the percentage of translocation of αPKC (FIG. 5A) and βIIPKC (FIG. 5B), […] was measured.

Substance: YGRKKRRQRRR-CC-QLVIAN (YGRKKRRQRRRCCQLVIAN; disulfide 12-13 (inferred)) [αV5-3-TAT]
- beta-1 integrin expression (beta-1 integrin): tended to decrease beta-1 integrin expression but the amount was not statistically significant
- inhibition of growth of JC tumor cells in vitro (JC tumor cells): does not substantially inhibit
- survival time (tumor cells [1]): longer survival times
- migration of JC cells (JC cells): reduced
- adhesion of tumor cells in the lung, imaging (tumor cells [2]; five days of treatment, FIGS. 7D-7E): reduced adhesion
- adhesion of tumor cells to the lung (tumor cells [2]; treatment from two days before intravenous injection of tumor cells, FIG. 7A, versus TAT control): reduced
- adhesion of tumor cells in the lung, imaging (tumor cells [2]; two days after treatment, FIGS. 7B-7C): reduced adhesion
- reduction in the number of cells at the primary tumor site (4T1 tumor cells): two-fold
- decrease of relative expression levels of CXCR4 chemokine receptor on the surface of tumor cells (CXCR4 chemokine receptor): 4-5 fold
- reduction of αPKC translocation (αPKC): about 40%
